Laboratory results: patent US20260216197A1, “WRN HELICASE INHIBITOR” (SUZHOU PUHE BIOPHARMA CO., LTD., priority 2022, published 2026)
Where two headings read alike, the source gives them in different places.

Columns and labels:
[1] = tested on: MSI-H colorectal cancer SW48 cell line; test: 2D anti-proliferative activity, MSI-H SW48 cells (CTG, 5 days); assay type: cell-based; conditions: for inhibition at 38.15 pM: 0.038146973 nM; for inhibition at 0.000152588 µM: 0.152587891 nM; for inhibition at 0.000610352 µM: 0.610351563 nM; for inhibition at 0.00244141 µM: 2.44140625 nM; for inhibition at 0.00976562 µM: 9.765625 nM; for inhibition at 0.0390625 µM: 39.0625 nM; for inhibition at 0.15625 µM: 156.25 nM; for inhibition at 0.625 µM: 625 nM; for inhibition at […]: 2500 nM; for inhibition at 10 µM: 10000 nM
How it was run: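 SW48 cells in RPMI 1640/10% FBS were exposed to serially varied compound concentrations for 5 days at 37 °C, 5% CO2. Viability was read as ATP-dependent CellTiter-Glo luminescence after 30 min.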

[2] = tested on: SW 48 (MSI-H) colorectal cancer cells; test: In vivo pharmacodynamic assay, SW48 xenograft in nude mice; parameters: species or system BALB/c nude mice; conditions: 50 mg/kg, QD, oral
Experimental: In vivo pharmacodynamic assay in BALB/c nude mice. Details are as follows:
SW 48 (MSI-H) colorectal cancer cells were cultured (L15 medium with 10% fetal bovine serum), and then inoculated into 6-8-week old female BALB/c nude mice (weighing about 20 g), wherein all mice were inoculated subcutaneously. The mice were cultured in an SPF-grade experimental environment, and all mice had free access to commercially certified standard diets. When the average tumor volume of the mice grew to about 150 mm^3, the test compound was orally administered daily. The dosage was as follows: blank group vehicle (10% HP-β-CD aqueous solution, pH-7). The dosage of the administration group was 120 mg/kg, 50 mg/kg, or 20 mg/kg, once a day. The tumor volume was measured with a two-dimensional caliper three times a week, and the animals were weighed every day. […] The tumor volume was calculated using the formula: V=½a*b^2, where a represents the long diameter of the tumor, and b represents the short diameter of the tumor.

[3] = Liver microsome stability test; assay type: in vitro ADME; conditions: human liver microsomes 0.5 mg/mL, compound 1 μM, NADPH 1 mM, 60 minutes
[4] = tested on: MSS colorectal cancer HT-29 cell line; test: 2D anti-proliferative activity, MSS HT-29 cells (CTG, 5 days); assay type: cell-based; conditions: Homo sapiens, 120 h
How it was run: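 HT-29 cells in McCoy's 5A with 10% FBS exposed to compound for 5 days at 37° C, 5% CO2 in 384-well format. Viable cells read as ATP luminescence (CellTiter-Glo) after 30 min.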

WRN helicase = WRN helicase (Homo sapiens, UniProt Q14191); test: WRN helicase hydrolysis/unwinding of double-stranded DNA (fluorescence); assay type: biochemical
How it was run: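 Human WRN helicase preincubated 30 min in the dark with compound (top final concentration 10 μM, 4-fold dilutions). Reaction started with 19-bp double-stranded DNA labelled 3′-TAMRA/5′-BHQ2, run 60 min at room temperature; IC50 from fluorescence change (Ex530/Em590) versus DMSO blank.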

[5] = Homo sapiens, read-out: Average value/ Inhibition rate
[6] = Homo sapiens, read-out: Test 1/ Inhibition rate
[7] = Homo sapiens, read-out: Test 2/ Inhibition rate

Chain of WRN helicase (Q14191 whole entry): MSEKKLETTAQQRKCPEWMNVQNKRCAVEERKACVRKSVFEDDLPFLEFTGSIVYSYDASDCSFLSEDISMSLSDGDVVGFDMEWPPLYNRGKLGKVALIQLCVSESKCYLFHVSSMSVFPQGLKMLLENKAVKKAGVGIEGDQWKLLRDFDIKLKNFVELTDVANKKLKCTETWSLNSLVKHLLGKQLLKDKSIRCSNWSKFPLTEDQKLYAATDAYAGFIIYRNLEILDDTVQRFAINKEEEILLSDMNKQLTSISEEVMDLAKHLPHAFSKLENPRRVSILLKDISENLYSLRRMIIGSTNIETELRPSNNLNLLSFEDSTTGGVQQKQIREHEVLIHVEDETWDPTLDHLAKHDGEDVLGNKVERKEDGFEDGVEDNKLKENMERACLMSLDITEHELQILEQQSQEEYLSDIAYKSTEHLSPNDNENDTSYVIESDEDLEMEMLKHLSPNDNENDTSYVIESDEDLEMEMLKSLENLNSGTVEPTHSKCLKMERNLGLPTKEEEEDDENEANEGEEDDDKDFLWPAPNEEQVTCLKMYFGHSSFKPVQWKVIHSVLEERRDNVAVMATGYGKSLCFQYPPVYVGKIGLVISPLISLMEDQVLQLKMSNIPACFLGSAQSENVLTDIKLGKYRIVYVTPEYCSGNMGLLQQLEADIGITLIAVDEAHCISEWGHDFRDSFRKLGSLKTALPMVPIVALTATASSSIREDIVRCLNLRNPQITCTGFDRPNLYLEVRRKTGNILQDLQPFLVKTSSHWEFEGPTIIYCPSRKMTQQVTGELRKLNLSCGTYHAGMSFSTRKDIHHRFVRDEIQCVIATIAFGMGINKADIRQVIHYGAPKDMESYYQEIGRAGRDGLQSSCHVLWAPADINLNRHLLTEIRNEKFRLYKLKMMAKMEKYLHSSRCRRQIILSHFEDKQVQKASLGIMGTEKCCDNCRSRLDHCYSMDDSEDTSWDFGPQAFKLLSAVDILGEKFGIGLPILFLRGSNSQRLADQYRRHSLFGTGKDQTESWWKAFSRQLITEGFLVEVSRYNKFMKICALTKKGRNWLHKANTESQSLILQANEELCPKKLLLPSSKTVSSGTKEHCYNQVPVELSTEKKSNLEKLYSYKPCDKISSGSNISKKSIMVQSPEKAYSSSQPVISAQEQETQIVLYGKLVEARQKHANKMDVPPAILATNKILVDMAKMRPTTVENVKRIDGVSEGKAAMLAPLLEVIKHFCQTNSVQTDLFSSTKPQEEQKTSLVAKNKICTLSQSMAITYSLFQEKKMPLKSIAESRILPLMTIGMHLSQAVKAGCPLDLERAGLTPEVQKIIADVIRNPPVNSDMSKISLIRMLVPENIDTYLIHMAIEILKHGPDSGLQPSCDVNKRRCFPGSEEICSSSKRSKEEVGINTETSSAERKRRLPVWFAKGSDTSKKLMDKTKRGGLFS

## CCc1c(N2CCN(C(=O)c3ncnc(C)c3O)CC2)c(=O)n2nc(C3=CCOCC3)nc2n1CC(=O)Nc1ccc(C(F)(F)F)c2ccoc12 [Compound H22]
[1]; 39 nM
  inhibitory activity on SW48 cells: high inhibitory activity
[1]; [5]
  inhibition at 38.15 pM: -4.19%
  inhibition at 0.000152588 µM: 0.206%
  inhibition at 0.000610352 µM: -2.48%
  inhibition at 0.00244141 µM: -0.303%
  inhibition at 0.00976562 µM: -6.3%
  inhibition at 0.0390625 µM: 29.2%
  inhibition at 0.15625 µM: 98%
  inhibition at 0.625 µM: 98.1%
  inhibition at […]: 99.6%
  inhibition at 10 µM: 101%
[1]; [6]
  inhibition at 38.15 pM: -1.57%
  inhibition at 0.000152588 µM: -0.184%
  inhibition at 0.000610352 µM: -1.27%
  inhibition at 0.00244141 µM: 2.69%
  inhibition at 0.00976562 µM: -5.49%
  inhibition at 0.0390625 µM: 28.4%
  inhibition at 0.15625 µM: 98.4%
  inhibition at 0.625 µM: 98.3%
  inhibition at […]: 99.9%
  inhibition at 10 µM: 102%
[1]; [7]
  inhibition at 38.15 pM: -6.81%
  inhibition at 0.000152588 µM: 0.596%
  inhibition at 0.000610352 µM: -3.7%
  inhibition at 0.00244141 µM: -3.3%
  inhibition at 0.00976562 µM: -7.12%
  inhibition at 0.0390625 µM: 30%
  inhibition at 0.15625 µM: 97.6%
  inhibition at 0.625 µM: 97.9%
  inhibition at […]: 99.2%
  inhibition at 10 µM: 101%
[1]; Homo sapiens, 120 h, 5 days
  IC50: 47 nM
[2]
  TGI: 104%
[2]; day 1
  Tumor volume (mm^3)-D 1: 162 mm^3
[2]; day 21
  Tumor volume (mm^3)-D 21: 89 mm^3
[3]
  CLint scaled at 1 μM: < 6.8 mL/min/kg
[3]; read-out: Human Clint μL/min/mg Protein
  microsomal CLint at 1 μM: < 5.4 µL/min/mg
[4]
  IC50: > 10000 nM
WRN helicase
  IC50: 1.4 nM
